Experimental data published in patent US6515159B2, “S,S-ethylenediamine-N,N′-disuccinic acid iron alkali salt and a process for production thereof” (Mitsubishi Rayon Co., Ltd., priority 1997, dated 2003).

Tests used:
[1] = storage stability of 40% aqueous solution (dissolution state after storage); format: physicochemical; conditions: 40% aqueous solution stored at 50° C. for 1 week, then diluted to 1%
Method: Each of the powders obtained in Examples 1, 10 and 13 and Comparative Examples 1 and 3 was dissolved to obtain a 40% aqueous solution. The solution was stored at 50° C. for 1 week and then diluted to 1% and the dissolution state of the resulting diluted solution was observed.

Structure (SMILES) | dissolution state of the resulting diluted solution [1] | pH of aqueous solution
O=C([O-])C[C@H](NCCN[C@@H](CC(=O)[O-])C(=O)[O-])C(=O)[O-].[Fe+3].[Na+] [Example 1, S,S-ethylenediamine-N,N′-disuccinic acid iron sodium salt] | no insoluble material was found | –
O=C(O)C[C@H](NCCN[C@@H](CC(=O)O)C(=O)O)C(=O)O [S,S-ethylenediamine-N,N′-disuccinic acid] | – | ~2
